The target of one assay is T1, OAO95042.1 (Arabidopsis thaliana, UniProt F4K5C5).
T1 construct: gene At5g07080; wild type in pET28a (NdeI/XhoI), E. coli BL21(DE3), Ni-NTA and gel filtration
T1 sequence (F4K5C5 1-450): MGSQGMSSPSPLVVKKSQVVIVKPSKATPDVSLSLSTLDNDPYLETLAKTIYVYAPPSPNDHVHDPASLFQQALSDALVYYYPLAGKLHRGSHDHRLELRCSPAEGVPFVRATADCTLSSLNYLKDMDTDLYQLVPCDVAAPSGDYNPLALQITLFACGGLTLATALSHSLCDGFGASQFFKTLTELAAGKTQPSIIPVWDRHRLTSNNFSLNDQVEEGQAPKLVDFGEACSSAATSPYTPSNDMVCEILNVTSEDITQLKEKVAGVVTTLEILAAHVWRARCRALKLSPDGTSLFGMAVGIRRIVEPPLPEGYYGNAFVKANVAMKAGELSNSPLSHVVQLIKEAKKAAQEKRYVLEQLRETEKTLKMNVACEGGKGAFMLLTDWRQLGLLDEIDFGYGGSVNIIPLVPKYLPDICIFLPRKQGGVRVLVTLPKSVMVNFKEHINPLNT
The assay can be described thus: HPLC-MS product assay. In kind it is biochemical. As to conditions: 200 µM putrescine, 60 µM caffeoyl-CoA, pH 7.5, 30 °C, 30 min.

The next assay concerns the target T2, NP_190301.2 (Arabidopsis thaliana, UniProt F4JAD2).
T2 construct: gene At3g47170; wild type in pET28a (NdeI/XhoI), E. coli BL21(DE3), Ni-NTA and gel filtration
T2 sequence (F4JAD2 1-468): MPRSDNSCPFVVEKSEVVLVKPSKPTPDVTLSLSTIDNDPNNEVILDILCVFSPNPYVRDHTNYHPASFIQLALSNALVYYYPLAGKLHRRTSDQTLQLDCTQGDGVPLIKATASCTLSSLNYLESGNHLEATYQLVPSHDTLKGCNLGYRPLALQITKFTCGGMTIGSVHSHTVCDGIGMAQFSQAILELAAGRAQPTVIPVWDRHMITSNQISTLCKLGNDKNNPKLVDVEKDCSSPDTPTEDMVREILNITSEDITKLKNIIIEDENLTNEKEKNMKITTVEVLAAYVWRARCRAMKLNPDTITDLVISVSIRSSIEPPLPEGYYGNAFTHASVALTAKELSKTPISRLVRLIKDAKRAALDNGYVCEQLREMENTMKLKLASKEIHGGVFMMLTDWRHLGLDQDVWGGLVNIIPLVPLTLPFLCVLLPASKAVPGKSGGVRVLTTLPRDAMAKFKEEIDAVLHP
The assay can be described thus: HPLC-MS product assay. In kind it is biochemical. The following applies: 200 µM putrescine, pH 7.5, 30 °C, 30 min.

Assay [1] concerns the target T3, AtSHT (Arabidopsis thaliana, UniProt O64470).
T3 construct: gene SHT; wild type in pET28a (NdeI/XhoI), E. coli BL21(DE3), Ni-NTA and gel filtration; model residues 1-451
T3 sequence (O64470 1-451): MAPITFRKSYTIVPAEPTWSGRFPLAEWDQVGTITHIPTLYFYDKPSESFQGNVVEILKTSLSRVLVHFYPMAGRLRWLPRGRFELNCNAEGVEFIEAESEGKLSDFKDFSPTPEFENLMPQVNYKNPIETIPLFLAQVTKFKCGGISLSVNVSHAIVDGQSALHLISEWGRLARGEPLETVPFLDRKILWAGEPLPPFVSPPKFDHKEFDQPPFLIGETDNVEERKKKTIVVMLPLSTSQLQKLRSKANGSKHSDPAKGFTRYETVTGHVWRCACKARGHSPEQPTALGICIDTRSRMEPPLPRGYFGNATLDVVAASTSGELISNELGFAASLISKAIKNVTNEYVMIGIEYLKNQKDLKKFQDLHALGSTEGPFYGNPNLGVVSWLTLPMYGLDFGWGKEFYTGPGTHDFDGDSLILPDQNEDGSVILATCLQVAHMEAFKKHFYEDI
Nature of the assay: LC-MS product assay. In kind it is biochemical. The following applies: 60 µM acyl donor, 200 µM spermidine, pH 7.5, 30 °C, 30 min.

Assay [2] concerns the target T3, AtSHT. Nature of the assay: X-ray crystal structure. As to conditions: co-crystallised with spermidine and CoA; 2.3 Å; active site near His155. In kind it is binding.
Assay [3] has as its target T4, AtSDT (Arabidopsis thaliana, UniProt O80467).
T4 construct: gene SDT; wild type in pET28a (NdeI/XhoI), E. coli BL21(DE3), Ni-NTA and gel filtration
T4 sequence (O80467 1-451): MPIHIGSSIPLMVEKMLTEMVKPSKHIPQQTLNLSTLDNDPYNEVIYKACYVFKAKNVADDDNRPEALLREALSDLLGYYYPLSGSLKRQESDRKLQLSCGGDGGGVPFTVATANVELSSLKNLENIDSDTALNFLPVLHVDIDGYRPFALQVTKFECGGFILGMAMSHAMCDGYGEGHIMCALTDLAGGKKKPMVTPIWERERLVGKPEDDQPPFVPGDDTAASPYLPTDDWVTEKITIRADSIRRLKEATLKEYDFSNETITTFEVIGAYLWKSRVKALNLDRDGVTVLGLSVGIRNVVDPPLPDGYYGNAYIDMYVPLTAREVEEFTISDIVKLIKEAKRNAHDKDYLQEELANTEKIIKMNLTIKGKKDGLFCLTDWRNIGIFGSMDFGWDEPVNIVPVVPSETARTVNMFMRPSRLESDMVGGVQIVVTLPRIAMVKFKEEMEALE
The assay can be described thus: LC-MS product assay; X-ray crystal structure. In kind it is biochemical. As to conditions: 200 µM spermidine, 60 µM sinapoyl-CoA, pH 7.5, 30 °C, 30 min; ligand in crystal only possible electron density, pose docked.

Assay [4] deals with T3, AtSHT. Nature of the assay: LC-MS product assay; X-ray crystal structure. In kind it is biochemical. The following applies: 200 µM spermidine, 60 µM feruloyl-CoA, pH 7.5, 30 °C, 30 min; ligand in crystal only possible electron density, pose docked.
For assay [5], the target named is T4, AtSDT. Nature of the assay: LC-MS product assay. In kind it is biochemical. The following applies: 60 µM acyl donor, 200 µM spermidine, pH 7.5, 30 °C, 30 min.

`NCCCCN` [putrescine]: the HPLC-MS product assay result at OAO95042.1 is “encoded enzymes that could efficiently convert putrescine and caffeoyl-CoA to di-caffeoyl putrescine”; at NP_190301.2 (60 µM caffeoyl-CoA), “encoded enzymes that could efficiently convert putrescine and caffeoyl-CoA to di-caffeoyl putrescine”.
For the compound `COc1cc(/C=C/C(=O)SCCNC(=O)CCNC(=O)[C@H](O)C(C)(C)COP(=O)(O)OP(=O)(O)OC[C@H]2O[C@@H](n3cnc4c(N)ncnc43)[C@H](O)[C@@H]2OP(=O)(O)O)ccc1O` [feruloyl-CoA], on AtSHT [1], the LC-MS product assay entry was “wild-type AtSHT can efficiently convert spermidine and feruloyl-CoA to monoferuloyl spermidine”.
Regarding `CC(C)(COP(=O)(O)OP(=O)(O)OC[C@H]1O[C@@H](n2cnc3c(N)ncnc32)[C@H](O)[C@@H]1OP(=O)(O)O)[C@@H](O)C(=O)NCCC(=O)NCCS` [CoA-HS], the X-ray crystal structure entry at AtSHT [2] is listed as “The extra density near His155 was determined as CoA-HS”.
Regarding `CC(C)(COP(=O)(O)OP(=O)(O)OC[C@H]1O[C@@H](n2cnc3c(N)ncnc32)[C@H](O)[C@@H]1OP(=O)(O)O)[C@@H](O)C(=O)NCCC(=O)NCCSC(=O)/C=C/c1ccc(O)c(O)c1` [caffeoyl-CoA], the HPLC-MS product assay entry on NP_190301.2 (60 µM acyl donor) was “encoded enzymes that could efficiently convert putrescine and caffeoyl-CoA to di-caffeoyl putrescine”.
With `NCCCCNCCCN` [spermidine], the “LC-MS product assay; X-ray crystal structure” value at AtSDT [3] was “wild-type AtSDT can efficiently couple spermidine with sinapoyl CoA to yield monosinapoyl”; at AtSHT [4], “wild-type AtSHT can efficiently convert spermidine and feruloyl-CoA to monoferuloyl spermidine”.
As to `COc1cc(/C=C/C(=O)SCCNC(=O)CCNC(=O)[C@H](O)C(C)(C)COP(=O)(O)OP(=O)(O)OC[C@H]2O[C@@H](n3cnc4c(N)ncnc43)[C@H](O)[C@@H]2OP(=O)(O)O)cc(OC)c1O` [sinapoyl-CoA], the LC-MS product assay result on AtSDT [5] was “wild-type AtSDT can efficiently couple spermidine with sinapoyl CoA to yield monosinapoyl”.

Values taken from publication PMC7838080, “Structural and Biochemical Insights Into Two BAHD Acyltransferases (AtSHT and AtSDT) Involved in Phenolamide Biosynthesis” (Frontiers in Plant Science, 2021).
